Here are results for 10 compounds from ChEMBL document CHEMBL3397033, “Bioactive benzofuran derivatives: moracins A-Z in medicinal chemistry” (Eur J Med Chem, 2015).

Converted amounts (≈) assume the structure as drawn.

The subject of data set [1] is Escherichia coli. Briefly: Antimicrobial activity against Escherichia coli. The data set is classed as functional.
The test system of data set [2] is Klebsiella pneumoniae. Briefly: Antimicrobial activity against Klebsiella pneumoniae. It counts as functional.
Data set [3] has as its system Pseudomonas aeruginosa. Briefly: Antimicrobial activity against Pseudomonas aeruginosa. The data set is classed as functional.
A short description of data set [4]: Antifungal activity against Fusarium roseum. The data set is classed as functional.
Data set [5] can be described thus: Antifungal activity against Fusarium lateritium f. sp. mori. The data set is classed as functional.
Data set [6] is described as follows: Antifungal activity against Fusarium solani f. sp. mori. The data set is classed as functional.
The nature of data set [7]: Antifungal activity against Diaporthe nomurai. It counts as functional.
Data set [8] can be described thus: Antifungal activity against Stigmina mori. The data set is classed as functional.
In data set [9] the test system is Rosellinia necatrix. The data set can be described thus: Antifungal activity against Rosellinia necatrix. The data set is classed as functional.
A short description of data set [10]: Antifungal activity against Cochliobolus miyabeanus. It counts as functional. Conditions: Bipolaris oryzae.
In data set [11] the test system is A549. Briefly: Cytotoxicity against human A549 cells after 96 hrs by MTT assay. The data set is classed as functional, cell-based. Conditions: A549, 96 h.
Data set [12] in a line: Cytotoxicity against human Bel7402 cells after 96 hrs by MTT assay. The data set is classed as functional, cell-based. The following applies: Bel-7402, 96 h.
The nature of data set [13]: Cytotoxicity against human BGC823 cells after 96 hrs by MTT assay. The following applies: BGC-823, 96 h. The data set is classed as functional, cell-based.
A short description of data set [14]: Cytotoxicity against human HCT8 cells after 96 hrs by MTT assay. It counts as functional, cell-based. The following applies: HCT-8, 96 h.
For data set [15], the system named is A2780. Briefly: Cytotoxicity against human A2780 cells after 96 hrs by MTT assay. Conditions: A2780, 96 h. It counts as functional, cell-based.
Data set [16] concerns Citrobacter freundii. The data set can be described thus: Antimicrobial activity against Citrobacter freundii by liquid microdilution assay. The data set is classed as functional.
Data set [17] has as its system Escherichia coli. The data set can be described thus: Antimicrobial activity against Escherichia coli by liquid microdilution assay. It counts as functional.
Data set [18] relates to Shigella dysenteriae. The data set can be described thus: Antimicrobial activity against Shigella dysenteriae by liquid microdilution assay. The data set is classed as functional.
The test system of data set [19] is Pseudomonas aeruginosa. The data set can be described thus: Antimicrobial activity against Pseudomonas aeruginosa by liquid microdilution assay. The data set is classed as functional.
For data set [20], the system named is Klebsiella pneumoniae. Briefly: Antimicrobial activity against Klebsiella pneumoniae by liquid microdilution assay. It counts as functional.
Data set [21] has as its system Salmonella typhi. Briefly: Antimicrobial activity against Salmonella typhi by liquid microdilution assay. The data set is classed as functional, Salmonella enterica subsp. enterica serovar Typhi. Conditions: Salmonella enterica.
For data set [22], the system named is Bacillus cereus. Briefly: Antimicrobial activity against Bacillus cereus by liquid microdilution assay. It counts as functional.
For data set [23], the system named is Staphylococcus aureus. Briefly: Antimicrobial activity against Staphylococcus aureus by liquid microdilution assay. The data set is classed as functional.
Data set [24] concerns Enterococcus faecalis. Briefly: Antimicrobial activity against Streptococcus faecalis by liquid microdilution assay. It counts as functional.
The subject of data set [25] is Candida albicans. The data set can be described thus: Antimicrobial activity against Candida albicans by liquid microdilution assay. It counts as functional.
The test system of data set [26] is Microsporum audouinii. Briefly: Antimicrobial activity against Microsporum audouinii by liquid microdilution assay. It counts as functional.
Data set [27] relates to Citrobacter freundii. Briefly: Microbicidal activity against Citrobacter freundii by liquid microdilution assay. It counts as functional.
Data set [28] concerns Escherichia coli. Briefly: Microbicidal activity against Escherichia coli by liquid microdilution assay. The data set is classed as functional.
Data set [29] concerns Shigella dysenteriae. Briefly: Microbicidal activity against Shigella dysenteriae by liquid microdilution assay. It counts as functional.
For data set [30], the system named is Klebsiella pneumoniae. Briefly: Microbicidal activity against Klebsiella pneumoniae by liquid microdilution assay. It counts as functional.
Data set [31] deals with Salmonella typhi. Briefly: Microbicidal activity against Salmonella typhi by liquid microdilution assay. It counts as functional, Salmonella enterica subsp. enterica serovar Typhi. The following applies: Salmonella enterica.
Data set [32] concerns Bacillus cereus. The data set can be described thus: Microbicidal activity against Bacillus cereus by liquid microdilution assay. The data set is classed as functional.
Data set [33] has as its system Staphylococcus aureus. The data set can be described thus: Microbicidal activity against Staphylococcus aureus by liquid microdilution assay. It counts as functional.
Data set [34] concerns Enterococcus faecalis. The data set can be described thus: Microbicidal activity against Streptococcus faecalis by liquid microdilution assay. The data set is classed as functional.
The test system of data set [35] is Candida albicans. The data set can be described thus: Microbicidal activity against Candida albicans by liquid microdilution assay. The data set is classed as functional.
The test system of data set [36] is Microsporum audouinii. The data set can be described thus: Microbicidal activity against Microsporum audouinii by liquid microdilution assay. It counts as functional.
A short description of data set [37]: Antioxidant activity assessed as DPPH radical scavenging activity measured as discoloration at 12.5 ug/ml. The data set is classed as physicochemical.
Data set [38] can be described thus: Antioxidant activity assessed as DPPH radical scavenging activity measured as discoloration at 25 ug/ml. It counts as physicochemical.
Data set [39] can be described thus: Antioxidant activity assessed as DPPH radical scavenging activity measured as discoloration at 50 ug/ml. The data set is classed as physicochemical.
A short description of data set [40]: Antioxidant activity assessed as DPPH radical scavenging activity measured as discoloration at 100 ug/ml. The data set is classed as physicochemical.
Data set [41] can be described thus: Antioxidant activity assessed as DPPH radical scavenging activity. The data set is classed as physicochemical.

In the case of `COc1cc2c(c3oc(-c4cc(O)cc(O)c4)cc13)CC=C(C)CO2`, the MIC in [1] was more than 100 µg/mL; in data set [2] it was more than 100 µg/mL; in [3] it was more than 100 µg/mL; in [4] it was 15 µg/mL (≈ 44.3 µM); in data set [5], 100 µg/mL (≈ 296 µM); in data set [6], 1000 µg/mL (≈ 2960 µM). Further, the MIC turned out to be 50 µg/mL (≈ 148 µM) in data set [7], 50 µg/mL (≈ 148 µM) in data set [8], 15 µg/mL (≈ 44.3 µM) in [9] and 50 µg/mL (≈ 148 µM) in [10].

On to `COc1cc(OC)c2cc(-c3cc(O)cc(O)c3)oc2c1`, for which the MIC in data set [1], in [2] and in data set [3] was more than 100 µg/mL throughout.

Turning to `COc1cc(O)cc(-c2cc3cc(O)c(OC)cc3o2)c1`, the MIC in data set [1], in data set [2] and in [3] was more than 100 µg/mL throughout.

In the case of `O=Cc1cc2cc(-c3cc(O)cc(O)c3)oc2cc1O`, the minimal inhibitory concentration (MIC) in [1], in data set [2] and in data set [3] was more than 100 µg/mL in each case. The half-maximal inhibitory concentration (IC50) was more than 10 µg/mL in [11]; 6.8 µg/mL (≈ 25.2 µM) in [12]; 7.6 µg/mL (≈ 28.1 µM) in data set [13]; 6.3 µg/mL (≈ 23.3 µM) in data set [14]; 6.9 µg/mL (≈ 25.5 µM) in data set [15].

With `CC1=CCc2c(ccc3cc(-c4cc(O)cc(O)c4)oc23)OC1`, the minimum inhibitory concentration (MIC) in [1] is more than 100 µg/mL; in data set [2], more than 100 µg/mL; in data set [3] it was more than 100 µg/mL; in data set [4] it was 15 µg/mL (≈ 48.6 µM); in [5], 500 µg/mL (≈ 1620 µM); in data set [6], 500 µg/mL (≈ 1620 µM). In addition, the MIC in data set [7] stood at 50 µg/mL (≈ 162 µM); in data set [8], 50 µg/mL (≈ 162 µM); in data set [9], 15 µg/mL (≈ 48.6 µM); in data set [10] it was 50 µg/mL (≈ 162 µM).

For `COc1cc(O)cc(-c2cc3ccc(O)cc3o2)c1CC=C(C)C` [MORACIN I], the MIC in data set [1], in data set [2] and in [3] was more than 100 µg/mL throughout.

Consider `CC1(O)C=Cc2c(c(O)cc3cc(-c4cc(O)cc(O)c4)oc23)OC1` (centres undefined), for which the MIC in data set [1] is more than 100 µg/mL; in data set [2] it was more than 100 µg/mL; in data set [3], more than 100 µg/mL; in data set [16], 312 µg/mL (≈ 917 µM); in data set [17], 10 µg/mL (≈ 29.4 µM); in data set [18], 78 µg/mL (≈ 229 µM). The MIC came out at 625 µg/mL (≈ 1840 µM) in data set [19]; 156 µg/mL (≈ 458 µM) in data set [20]; 39 µg/mL (≈ 115 µM) in data set [21]; 10 µg/mL (≈ 29.4 µM) in data set [22]; 156 µg/mL (≈ 458 µM) in [23]; 20 µg/mL (≈ 58.8 µM) in data set [24]. In addition, the MIC in data set [25] was 312 µg/mL (≈ 917 µM); in data set [26], 78 µg/mL (≈ 229 µM). Further, the minimal bactericidal concentration (MBC) in [27] was determined as 625 µg/mL (≈ 1840 µM); in [28], 39 µg/mL (≈ 115 µM); in [29] it was 156 µg/mL (≈ 458 µM); in data set [30], 312 µg/mL (≈ 917 µM); in data set [31], 78 µg/mL (≈ 229 µM); in data set [32], 39 µg/mL (≈ 115 µM). Further, the MBC in [33] turned out to be 312 µg/mL (≈ 917 µM); in data set [34], 78 µg/mL (≈ 229 µM). The values for the MFC in data set [35] and in data set [36] were 625 µg/mL (≈ 1840 µM) and 312 µg/mL (≈ 917 µM), respectively. Also, the Activity amounted to 38.5% in data set [37], 42.09% in [38], 49.98% in data set [39] and 53.6% in data set [40]. In data set [41], the EC50 came out at 6.08 µg/mL (≈ 17.9 µM).

`C/C(=C/Cc1c(O)c2c(c3cc(-c4cc(O)cc(O)c4)oc13)C=CC(C)(C)O2)CCCC(C)(C)O`: the MIC in [1], in data set [2] and in data set [3] was more than 100 µg/mL each time. Further, the IC50 in data set [11] is more than 10 µg/mL; in data set [12], more than 10 µg/mL; in [13], 8.3 µg/mL (≈ 17.3 µM); in data set [14], 9.2 µg/mL (≈ 19.2 µM); in [15], more than 10 µg/mL.

Turning to `CC1(C)C=Cc2c(cc(O)cc2-c2cc3ccc(O)cc3o2)O1`, the minimal inhibitory concentration (MIC) is more than 100 µg/mL in data set [1]; more than 100 µg/mL in data set [2]; more than 100 µg/mL in data set [3]; 15 µg/mL (≈ 48.6 µM) in [4]; 50 µg/mL (≈ 162 µM) in data set [5]; 200 µg/mL (≈ 649 µM) in data set [6]. The minimal inhibitory concentration (MIC) in data set [7] came out at 15 µg/mL (≈ 48.6 µM); in [8], 200 µg/mL (≈ 649 µM); in [9], 15 µg/mL (≈ 48.6 µM); in [10] it was 100 µg/mL (≈ 324 µM).

As to `COc1cc2cc(-c3cc(O)cc(O)c3)oc2cc1OC`, the MIC in data set [1] is more than 100 µg/mL; in data set [2] it was more than 100 µg/mL; in [3], more than 100 µg/mL; in data set [4], 50 µg/mL (≈ 175 µM); in data set [5] it was 200 µg/mL (≈ 699 µM); in [6] it was 1000 µg/mL (≈ 3490 µM). Moreover, the MIC was 1000 µg/mL (≈ 3490 µM) in data set [7], 50 µg/mL (≈ 175 µM) in [8], 50 µg/mL (≈ 175 µM) in data set [9] and 100 µg/mL (≈ 349 µM) in data set [10].
